# Measured values published in US20220125944A1, “ANTIBODY-DRUG CONJUGATE AND USE THEREOF” (priority 2019, published 2022).
# Like-named read-outs stand apart in the source and are kept apart here.
# Assays:
# Mino = assay: Cytotoxicity of linker-drug complex, Mino; format: cell-based; settings: Homo sapiens
# Protocol: (§1) The cytotoxicity of the linker-drug complex itself prepared to contain beta-galactosidase was evaluated. Specifically, each of the linker-drug complexes dissolved in DMSO was serially diluted 3× from 200 nM to 30 pM in a medium for cell culture to prepare a sample, and various cancer cell lines were treated with the sample to finally expose the cells to 100 nM to 15 pM the linker-drug complexes. The cells were cultured for 6 days, cell viability was observed using a CCK-8 cell-counting kit and cytotoxicity was evaluated.
# Jeko-1 = assay: Cytotoxicity of linker-drug complex, Jeko-1; format: cell-based; settings: Homo sapiens
# Protocol: as §1
# Daudi = assay: Cytotoxicity of linker-drug complex, Daudi; format: cell-based; settings: Homo sapiens
# Protocol: as §1
# Raji = assay: Cytotoxicity of linker-drug complex, Raji; format: cell-based; settings: Homo sapiens
# Protocol: as §1
# 697 = assay: Cytotoxicity of linker-drug complex, 697; format: cell-based
# Protocol: as §1
# jurkat = assay: Cytotoxicity of linker-drug complex, jurkat; format: cell-based; settings: Homo sapiens
# Protocol: as §1
# H929 = assay: Cytotoxicity of linker-drug complex, H929; format: cell-based; settings: Homo sapiens
# Protocol: as §1
# OPM-2 = assay: Cytotoxicity of linker-drug complex, OPM-2; format: cell-based; settings: Homo sapiens
# Protocol: as §1
# U266 = assay: Cytotoxicity of linker-drug complex, U266; format: cell-based; settings: Homo sapiens
# Protocol: as §1
# Calu-6 = assay: Cytotoxicity of linker-drug complex, Calu-6; format: cell-based; settings: Homo sapiens
# Protocol: as §1
# HCC1954 = assay: Cytotoxicity of linker-drug complex, HCC1954; format: cell-based; settings: Homo sapiens
# Protocol: as §1
# JIMT1 = assay: Cytotoxicity of linker-drug complex, JIMT1; format: cell-based; settings: Homo sapiens
# Protocol: as §1
# NCI-N87 = assay: Cytotoxicity of linker-drug complex, NCI-N87; format: cell-based; settings: Homo sapiens
# Protocol: as §1
# NaPi2b [1] = biological target: T1, NaPi2b (UniProt O95436 1-690, limits assumed); assay: cell-based or functional assay
# T1 sequence (looked up): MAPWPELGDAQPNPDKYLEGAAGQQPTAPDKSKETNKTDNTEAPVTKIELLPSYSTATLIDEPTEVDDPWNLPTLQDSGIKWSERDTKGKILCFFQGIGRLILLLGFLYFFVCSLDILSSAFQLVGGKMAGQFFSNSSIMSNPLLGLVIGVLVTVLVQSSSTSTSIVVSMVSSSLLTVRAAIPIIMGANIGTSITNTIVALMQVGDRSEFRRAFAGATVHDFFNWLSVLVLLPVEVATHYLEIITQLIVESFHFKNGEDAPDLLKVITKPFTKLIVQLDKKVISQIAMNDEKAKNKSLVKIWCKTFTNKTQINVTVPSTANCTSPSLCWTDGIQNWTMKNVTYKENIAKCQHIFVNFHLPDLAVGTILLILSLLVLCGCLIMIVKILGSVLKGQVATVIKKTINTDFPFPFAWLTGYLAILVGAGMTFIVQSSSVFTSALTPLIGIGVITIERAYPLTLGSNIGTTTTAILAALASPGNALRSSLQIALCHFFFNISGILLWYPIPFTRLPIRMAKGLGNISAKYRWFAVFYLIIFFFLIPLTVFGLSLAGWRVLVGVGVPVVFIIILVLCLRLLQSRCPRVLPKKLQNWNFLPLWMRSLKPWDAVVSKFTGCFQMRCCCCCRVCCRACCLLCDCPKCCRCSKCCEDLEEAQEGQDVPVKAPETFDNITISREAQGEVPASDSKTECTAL
# NaPi2b [2] = biological target: T1, NaPi2b; assay: cell-based or functional assay; remark: listed apart in the source
# CLL-1 = biological target: T2, CLL-1 (UniProt Q5QGZ9 1-265, limits assumed); assay: cell-based or functional assay
# T2 sequence (looked up): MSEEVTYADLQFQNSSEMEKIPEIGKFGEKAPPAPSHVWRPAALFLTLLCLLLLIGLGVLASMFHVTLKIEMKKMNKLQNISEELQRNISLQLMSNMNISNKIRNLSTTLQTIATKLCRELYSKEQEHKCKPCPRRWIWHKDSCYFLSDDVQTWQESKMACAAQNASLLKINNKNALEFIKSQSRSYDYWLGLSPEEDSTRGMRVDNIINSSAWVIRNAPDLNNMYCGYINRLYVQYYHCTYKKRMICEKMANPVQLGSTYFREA
molecule,measurement,setting,value
O=C(CCCCCN1C(=O)C=CC1=O)NCCOc1cc(/C=C/C(=O)N2C[C@@H](CCl)c3c2cc(O[C@@H]2O[C@H](CO)[C@H](O)[C@H](O)[C@H]2O)c2ccccc32)ccc1/C=C/C(=O)N1C[C@@H](CCl)c2c1cc(O[C@@H]1O[C@H](CO)[C@H](O)[C@H](O)[C@H]1O)c1ccccc21 [PD001],IC50,"Mino; 144 h, read-out: IC50 #1",3.26 nM
same,IC50,"Mino; 144 h, read-out: IC50 #2",2.34 nM
same,IC50,Mino; read-out: IC50 Mean,2.76 nM
same,IC50,"Jeko-1; JeKo-1, 144 h, read-out: IC50 #1",13.1 nM
same,IC50,"Jeko-1; JeKo-1, read-out: IC50 #2",31.7 nM
same,IC50,"Jeko-1; JeKo-1, read-out: IC50 Mean",20.4 nM
same,IC50,"Daudi; 144 h, read-out: IC50 #1",12.5 nM
same,IC50,Daudi; read-out: IC50 #2,9.46 nM
same,IC50,Daudi; read-out: IC50 Mean,10.9 nM
same,IC50,"Raji; 144 h, Burkitt's lymphoma, run #1, 6 days, CCK-8, read-out: IC50 #1",30.8 nM
same,IC50,"Raji; mean of #1 and #2, read-out: IC50 Mean",18.4 nM
same,IC50,"Raji; run #2, read-out: IC50 #2",11 nM
same,IC50,"697; 144 h, read-out: IC50 #1",4.78 nM
same,IC50,697; read-out: IC50 #2,3.72 nM
same,IC50,697; read-out: IC50 Mean,4.22 nM
same,IC50,"jurkat; 144 h, read-out: IC50 #1",14.5 nM
same,IC50,jurkat; read-out: IC50 #2,1.12 nM
same,IC50,jurkat; read-out: IC50 Mean,12.7 nM
same,IC50,"H929; NCI-H929, 144 h, read-out: IC50 #1",20.3 nM
same,IC50,"H929; NCI-H929, read-out: IC50 #2",26.4 nM
same,IC50,"H929; NCI-H929, read-out: IC50 Mean",23.1 nM
same,IC50,"OPM-2; OPM-2, 144 h, read-out: IC50 #1",26.2 nM
same,IC50,"OPM-2; OPM-2, read-out: IC50 #2",25.6 nM
same,IC50,"OPM-2; OPM-2, read-out: IC50 Mean",25.9 nM
same,IC50,"U266; U-266, 144 h, read-out: IC50 #1",7.97 nM
same,IC50,"U266; U-266, read-out: IC50 #2",5.61 nM
same,IC50,"U266; U-266, read-out: IC50 Mean",6.69 nM
same,IC50,"Calu-6; Calu-6, 144 h, read-out: IC50 #1",58.9 nM
same,IC50,"Calu-6; Calu-6, read-out: IC50 #2",52.2 nM
same,IC50,"Calu-6; Calu-6, read-out: IC50 Mean",55.4 nM
same,IC50,"HCC1954; HCC1954, 144 h, read-out: IC50 #1",25 nM
same,IC50,"HCC1954; HCC1954, read-out: IC50 #2",16.4 nM
same,IC50,"HCC1954; HCC1954, read-out: IC50 Mean",20.2 nM
same,IC50,"JIMT1; JIMT-1, 144 h, read-out: IC50 #1",47 nM
same,IC50,"JIMT1; JIMT-1, read-out: IC50 #2",24.9 nM
same,IC50,"JIMT1; JIMT-1, read-out: IC50 Mean",34.2 nM
same,IC50,"NCI-N87; NCI-N87, 144 h, read-out: IC50 #1",8.06 nM
same,IC50,"NCI-N87; NCI-N87, read-out: IC50 #2",9.09 nM
same,IC50,"NCI-N87; NCI-N87, read-out: IC50 Mean",8.56 nM
"D20002 (10H1-PD001) (antibody, human IgG1, kappa, V domains shown, linker-drug PD001 conjugated to a cysteine put in place of lysine 149 (Kabat numbering) of the light chain) VH: EVQLVESGGGLVQPGGSLRLSCAASGFSFSDFAMSWVRQAPGKGLEWVATIGRVAFHTYYPDSMKGRFTISRDNSKNTLYLQMNSLRAEDTAVYYCARHRGFDVGHFDFWGQGTLVTVSS VL: DIQMTQSPSSLSASVGDRVTITCRSSETLVHSSGNTYLEWYQQKPGKAPKLLIYRVSNRFSGVPSRFSGSGSGTDFTLTISSLQPEDFATYYCFQGSFNPLTFGQGTKVEIKR","IC50, cytotoxicity on OVCAR-3",NaPi2b [1],1.53 nM
same,non-binder/binder ratio on OVCAR-3,NaPi2b [1],≥ 100
same,"IC50 (nM), cytotoxicity on OVCAR3",NaPi2b [2],1.5 nM
"D20502 (6E7-PD009) (antibody, human IgG1, kappa, V domains shown, linker-drug PD009 conjugated to a cysteine put in place of lysine 149 (Kabat numbering) of the light chain) VH: EVQLVESGGGLVQPGGSLRLSCAASGFSFSDFAMSWVRQAPGKGLEWVATIGRVAFHTYYPDSMKGRFTISRDNSKNTLYLQMNSLRAEDTAVYYCARHRGFDVGHFDFWGQGTLVTVSS VL: DIQMTQSPSSLSASVGDRVTITCRASQSVSTSSYNYMHWYQQKPGKPPKLLIKYASNLESGVPSRFSGSGSGTDFTLTISSLQPEDFATYYCQHSWEIPLTFGQGTKVEIKR","IC50 (nM), cytotoxicity on EDL-1 (AML)",CLL-1,0.3 nM
